Reference: patent US6570006B1, “Bacterial gene and method of treating a gram negative bacterial infection” (priority 1998, dated 2003)
Values after ≈ are worked out from the molar mass of the structure shown. “Also recorded” adds a separate entry of the source. Where two headings read alike, the source gives them in different places.

Experiments:
[1] = test system: CWG312 (F470 with a waaY::aacC1 insertion); assay: SDS and novobiocin sensitivity testing (MIC), waaY mutant; type: cell-based, Escherichia coli; settings: for MIC / sensitivity compared with F470 (in words): strain CWG312 (waaY) versus F470 parent
Experimental: (§1) Bacterial Strains and Growth Conditions—E. coli F470 is an R-LPS derivative of an O8:K27 strain (Schmidt, G. et al, 1969), and serves as the prototype for R1 core OS studies. Derivatives of F470 used in this study include CWG296 (F470 with a waaP::aacC1 insertion), CWG297 (F470 with a waaQ::aacC1 insertion), and CWG312 (F470 with a waaY::aacC1 insertion). Bacteria were grown in Luria-Bertani (LB) broth at 37° C. Growth media were supplemented with ampicillin (100 μg/mL), gentamicin (15 μg/mL), or chloramphenicol (30 μg/mL) when necessary.
(§2) Sodium dodecyl sulfate (SDS) and Novobiocin Sensitivity Testing—Two-fold serial dilutions of SDS (200→0.1 mg/mL) and novobiocin (200→1.6 μg/mL) were made in 5 mL volumes of LB. Each series of tubes was point inoculated from an overnight culture of the strain to be tested, and then incubated with shaking at 37° C. Growth was scored as positive if after 8 hours the culture was visibly turbid (i.e. A600>0.2).
To test this possibility, strain CWG312 was derived by insertion of the aacC1 gene into the unique SnaBI site in the waaY coding region of F470 (FIG. 2B). The LPS from the resulting mutant migrated similarly to that of the F470 parent in sodium dodexyl sulphate-polyacrylamine gel electrophoresis (SDS-PAGE) (data not shown), precluding any significant effect of the mutation on core OS extension.

[2] = test system: CWG297 (F470 with a waaQ::aacC1 insertion); assay: SDS and novobiocin sensitivity testing (MIC), waaQ mutant; type: cell-based, Escherichia coli; settings: for MIC / sensitivity compared with F470 (in words): strain CWG297 (waaQ) versus F470 parent
Experimental: as §1, §2
Strain CWG297 was derived by insertion of the aacC1 gene into the unique NruI site in the waaQ coding region of F470 (FIG. 2B).

[3] = test system: CWG296 (F470 with a waaP::aacC1 insertion); assay: SDS and novobiocin sensitivity testing (MIC), waaP mutant; type: cell-based, Escherichia coli; settings: for MIC: Escherichia coli, LB, 37° C., 8 hours; for MIC / sensitivity of the mutant (in words): strain CWG296 (waaP); for increase in the susceptibility: strain CWG296 (waaP) versus F470 parent
Experimental: as §1, §2
Strain CWG296 was derived by insertion of the aacC1 gene into the unique NruI site in the waaP coding region of F470 (FIG. 2B). The resulting mutant was hypersensitive to novobiocin and SDS (Table II), as expected based on results from previous studies (Helander, I. M. et al., 1989; Parker, C. T. et al., 1992).

CWG296 (waaP) + pWQ909 = assay: SDS and novobiocin sensitivity testing (MIC), complemented waaP mutant; type: cell-based, Escherichia coli; settings: for resistance after introduction of multicopy waaP (in words): CWG296 with plasmid pWQ909
Experimental: as §1
Cloning and Expression of waaP for Complementation—Oligonucleotide primers for the amplification of waaP from the F470 chromosome were designed to introduce appropriate restriction sites for cloning. The forward primer (5′-TGTGGATccAAATAGTGGGCACTCA-3′)(SEQ. I.D. No. 7) introduced a BamHI site (underlined) 32 base pairs downstream of the waaP stop codon, and the complementary reverse primer (5′-GGGTGGTCcatATGGTTGAACTTAA-3′)(SEQ. I.D. No. 8) introduced an NdeI site (underlined) overlapping the waaP start codon (bases shown in lower case indicate mismatches between the primer and chromosomal sequences). The coding region for waaP alone was subsequently isolated as a BamHI-NdeI fragment, and cloned behind the arabinose-inducible PBAD promoter of the expression vector pBAD18, to generate plasmid pWQ909. L-arabinose was used at a final concentration of 0.002% to induce expression of WaaP from plasmid pWQ909.
as §2
Strain CWG296 was derived by insertion of the aacC1 gene into the unique NruI site in the waaP coding region of F470 (FIG. 2B). […]

E. coli F470 (parent) = assay: SDS and novobiocin sensitivity testing (MIC), parent strain; type: cell-based; settings: Escherichia coli, LB, 37° C., growth scored after 8 hours, read-out: Minimum inhibitory concentration (MIC) novobiocin
Experimental: as §1, §2

[4] = Escherichia coli, 8 h, read-out: Minimum inhibitory concentration (MIC) novobiocin

SMILES | MIC / sensitivity compared with F470 (in words) ([1]; sulfate) | MIC / sensitivity compared with F470 (in words) ([2]; sulfate) | MIC ([3]; read-out: Minimum inhibitory concentration (MIC) SDS) | sensitivity of the mutant (in words) [3] | increase in the susceptibility [3] | resistance after introduction of multicopy waaP (in words) (CWG296 (waaP) + pWQ909) | MIC (E. coli F470 (parent)) | MIC [1, 4] | MIC / sensitivity compared with F470 (in words) [1] | MIC [2, 4] | MIC / sensitivity compared with F470 (in words) [2] | MIC ([3]; read-out: Minimum inhibitory concentration (MIC) novobiocin) | MIC (CWG296 (waaP) + pWQ909; Escherichia coli, strain CWG296 (waaP) + pWQ909, LB, 37° C., 8 hours, read-out: Minimum inhibitory concentration (MIC) novobiocin)
CCCCCCCCCCCCOS(=O)(=O)[O-].[Na+] [SDS, Sodium dodecyl sulfate] | slightly less than for F470; also recorded: minor increase in the sensitivity | slightly less than for F470; also recorded: minor increase in the sensitivity | 100 µg/mL | hypersensitive | > 1000 fold | restored wild-type levels of resistance |  |  |  |  |  |  | 
CO[C@@H]1[C@@H](OC(N)=O)[C@@H](O)[C@H](Oc2ccc3c(O)c(NC(=O)c4ccc(O)c(CC=C(C)C)c4)c(=O)oc3c2C)OC1(C)C [novobiocin] |  |  |  | hypersensitive | 32 fold | restored wild-type levels of resistance | 200 µg/mL (≈ 326 µM) | 100 µg/mL (≈ 163 µM) | slightly less than for F470; also recorded: minor increase in the sensitivity | 100 µg/mL (≈ 163 µM) | slightly less than for F470; also recorded: minor increase in the sensitivity | 6.3 µg/mL (≈ 10.3 µM) | 100 µg/mL
